Assay results: paper PMC12171880, “Selectivity and Safety Characterization of a Xanthine–Imidazothiazole Lead Structure: a Novel Tryptophan Hydroxylase Inhibitor of Peripheral Serotonin Synthesis” (ACS Pharmacology & Translational Science, 2025)

Legend:
Format in all cases: biochemical
human recombinant TPH1 = target: T1, human recombinant TPH1 (Homo sapiens, UniProt P17752); experiment: TPH1 enzymatic activity assay (fluorescence, 96-well)
T1 construct: Full-length human TPH1 and TPH2 (UniProt entries P17752 and Q8IWU9); MBP (N); made in house
T1 sequence (P17752 1-444): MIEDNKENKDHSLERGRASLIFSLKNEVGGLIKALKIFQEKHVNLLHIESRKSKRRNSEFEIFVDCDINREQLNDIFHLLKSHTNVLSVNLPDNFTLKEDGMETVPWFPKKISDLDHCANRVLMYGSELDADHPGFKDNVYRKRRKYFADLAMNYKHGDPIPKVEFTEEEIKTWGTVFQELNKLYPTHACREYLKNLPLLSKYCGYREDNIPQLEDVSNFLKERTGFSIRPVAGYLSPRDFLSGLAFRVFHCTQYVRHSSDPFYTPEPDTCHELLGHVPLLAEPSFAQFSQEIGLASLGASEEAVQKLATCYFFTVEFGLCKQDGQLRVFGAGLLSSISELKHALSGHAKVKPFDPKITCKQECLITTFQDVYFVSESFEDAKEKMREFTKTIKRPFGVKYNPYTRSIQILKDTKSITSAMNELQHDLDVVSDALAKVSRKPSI

human recombinant PAH = target: T2, human recombinant PAH (Homo sapiens, UniProt P00439); experiment: PAH enzymatic activity assay (fluorescence, 96-well)
T2 construct: expression vectors for full-length human PAH (UniProt entry P00439); made in house; host or cells: E. coli T7 Express (NEB) with pRARE2
T2 sequence (P00439 1-452): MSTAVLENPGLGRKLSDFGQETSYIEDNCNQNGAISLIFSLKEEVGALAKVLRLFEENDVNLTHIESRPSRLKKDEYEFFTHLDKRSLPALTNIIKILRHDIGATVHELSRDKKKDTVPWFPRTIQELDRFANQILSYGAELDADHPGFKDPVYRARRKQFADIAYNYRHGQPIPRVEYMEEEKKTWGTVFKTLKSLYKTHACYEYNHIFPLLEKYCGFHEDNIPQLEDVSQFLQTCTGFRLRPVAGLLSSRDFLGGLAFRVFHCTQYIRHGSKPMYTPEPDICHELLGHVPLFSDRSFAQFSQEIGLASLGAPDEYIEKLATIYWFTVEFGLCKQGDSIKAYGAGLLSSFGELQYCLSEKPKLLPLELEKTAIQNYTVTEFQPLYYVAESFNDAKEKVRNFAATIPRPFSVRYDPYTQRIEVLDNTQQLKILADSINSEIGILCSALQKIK

rat homolog of TH = target: T3, rat homolog of TH (Rattus norvegicus, UniProt P04177); experiment: Eurofins Diversity Panel enzyme assay, rat TH
T3 construct: Eurofins Cerep (contract screening)
T3 sequence (P04177 whole entry): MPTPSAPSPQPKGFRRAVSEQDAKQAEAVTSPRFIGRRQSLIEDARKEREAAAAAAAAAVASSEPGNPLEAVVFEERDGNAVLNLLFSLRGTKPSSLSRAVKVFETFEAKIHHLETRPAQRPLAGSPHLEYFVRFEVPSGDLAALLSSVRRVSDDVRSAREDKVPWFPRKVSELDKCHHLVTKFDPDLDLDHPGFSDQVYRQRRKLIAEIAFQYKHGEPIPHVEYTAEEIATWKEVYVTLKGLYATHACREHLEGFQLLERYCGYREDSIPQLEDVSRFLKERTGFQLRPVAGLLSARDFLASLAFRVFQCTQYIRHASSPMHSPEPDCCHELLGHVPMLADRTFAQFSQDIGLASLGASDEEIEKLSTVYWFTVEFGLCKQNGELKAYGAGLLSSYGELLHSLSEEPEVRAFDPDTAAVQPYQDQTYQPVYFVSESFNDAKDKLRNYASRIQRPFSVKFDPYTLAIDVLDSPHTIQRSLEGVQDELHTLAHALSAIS
Description: TPT-004 was evaluated at a concentration of 10 μM in a total of 97 binding, enzyme, and uptake assays (Diversity Panel) by Eurofins Cerep (Celle l’Evescault, France). Compound binding was calculated as % inhibition of the binding of a ligand specific to each target. The compound enzyme inhibition effect was calculated as percentage inhibition of the control enzyme activity. Results showing an inhibition (or stimulation for assays run under basal conditions) of >50% are considered to represent significant effects of the test compounds. Results showing an inhibition (or stimulation) between 25% and 50% are indicative of weak to moderate effects. Results showing an inhibition (or stimulation) lower than 25% are not considered significant and are mostly attributable to variability in the signal around the control level. […] In each experiment, and if applicable, the respective reference compound was tested concurrently with TPT-004, and the data were compared with historical values determined at Eurofins. […]
The results are expressed as a percent of control-specific binding: measured specific binding/control specific binding×100 and as a percent inhibition of control-specific binding: 100−(measured specific binding/control specific binding×100) obtained in the presence of TPT-004. […]

CCn1c(=O)[nH]c(=O)c2c1nc(Cc1cn3cc(C)sc3n1)n2CC1COC1 [TPT-004]
Mean TPH1 activity [%] (human recombinant TPH1; 3 nM): 99.51% | IC50 (human recombinant TPH1; 3 nM to 10 μM, 15 μM L-Trp, 20 μM BH4): 33.4 nM | Mean TPH1 activity [%] (human recombinant TPH1; 10 nM): 77.11% | Mean TPH1 activity [%] (human recombinant TPH1; 30 nM): 52.25% | Mean TPH1 activity [%] (human recombinant TPH1; 100 nM): 21.29% | Mean TPH1 activity [%] (human recombinant TPH1; 300 nM): 7.59% | Mean TPH1 activity [%] (human recombinant TPH1; 1 μM): 3.62% | Mean TPH1 activity [%] (human recombinant TPH1; 3 μM): 3.64% | Mean TPH1 activity [%] (human recombinant TPH1; 10 μM): 3.21% | fold higher TPH1 inhibitory potency (lower IC50) compared to LP778902 (human recombinant TPH1; 33.38 vs […]): ~18 | IC50 (human recombinant TPH1; supplementary CSV): 33 nM | Mean PAH activity [%] (human recombinant PAH; 10 nM): 94.75% | IC50 (human recombinant PAH; 10 nM to 30 μM, 175 μM L-Phe, 10 μM BH4): 404 nM | Mean PAH activity [%] (human recombinant PAH; 30 nM): 91.12% | Mean PAH activity [%] (human recombinant PAH; 100 nM): 82.79% | Mean PAH activity [%] (human recombinant PAH; 300 nM): 58.10% | Mean PAH activity [%] (human recombinant PAH; 1 μM): 25.53% | Mean PAH activity [%] (human recombinant PAH; 3 μM): 9.81% | Mean PAH activity [%] (human recombinant PAH; 10 μM): 4.37% | Mean PAH activity [%] (human recombinant PAH; 30 μM): 2.49% | Selectivity ratio PAH IC50 : TPH1 IC50 (human recombinant PAH; calculated from determined IC50 values): 12.09 | IC50 (human recombinant PAH; supplementary CSV): 404 nM | inhibition at 10 µM (rat homolog of TH): 87.8%
